Here are results for nine molecules from patent USRE28819E, “Dialkylated glycol compositions and medicament preparations containing same” (Syntex (U.S.A.) Inc., priority 1975, dated 1976).

One data set is described as follows: physchem. The following applies: polyethylene glycol-550-dimethyl ether, organic solvent or mixture.
Data set [1] can be described thus: solubility of medicament in polyethylene glycol-550-dimethyl ether at 30°C.
A short description of data set [2]: decomposition of aspirin vs. time in formulation stored at 80°C. Type of data set: physicochemical. The following applies: conclusion from Examples XV-XXIX. How it is done:
A formulation is prepared having 0.5 g. aspirin per 1.0g. polyethylene glycol- 750-dimethyl ether, and stored at 80°C. Decomposition of the aspirin is measured vs. time. The time for 10% decomposition is 27 hours. This reflects approximately a 30 month shelf-life at 25°C. This can be compared to a published report [Jun et al, J. Pharm. Sec.

The nature of data set [3]: storage stability of PGE2 formulations (percent activity, t90). It counts as physicochemical. The following applies: PGE2, conclusion from Examples XV-XXIX. The protocol:
A formulation is prepared having 1 mg. PGE2 per ml. 1,2-dimethoxyethane. After 12 days storage at 60°C. under a nitrogen atmosphere, the PGE2 assays 100% of the activity at time zero.
A formulation is prepared having 1 mg. PGE2 per ml. of triethylene glycol-dimethyl ether. After 5 days storage at 60°C. under a nitrogen atmosphere, the PGE2 assays 100% of the activity at time zero.
The following formulations are prepared having 1 mg. PGE2 per ml. of polyethylene glycol-550-dimethyl ether, and the additional material(s) as set forth below. The percent activity of the PGE2 after storage for 7 days at 80°C. is also given.
A formulation is prepared having 1 mg. PGE2, 0.01% edetic acid, 0.01% BHA and 0.01% BHT per ml. polyethylene glycol-550-dimethyl ether, and sealed in an ampule under nitrogen atmosphere. After 18 days storage at 80°C., the PGE2 assays 100% of the activity at time zero.
The following formulations are prepared having 1 mg. PGE2 per ml. polyethylene glycol-550 -dimethyl ether, and the additional material(s) as set forth below, and the sealed in individual ampules under nitrogen atmosphere. The time (t90) for 10% of the PGE2 to decompose when stored at 80°C. is given. Also given is the corresponding t90 for a formulation having 1 mg. PGE2 per ml. polyethylene glycol-400, also sealed under nitrogen atmosphere.
By comparison, 1 mg. […]

For data set [4] the following is noted: literature (Brummer; Karim et al); cited from earlier work.
Where [5] appears, read: polyethylene glycol-550-dimethyl ether, organic solvent or mixture.

In brackets after ≈: the same amount, converted by molar mass. Structures can show the parent of a compound that is named as a salt.

In general, solubility refers to the concentration that dissolves in the medium under given conditions. For `CN(C)C1C(=O)C(C(N)=O)=C(O)C2(O)C(=O)C3=C(O)c4c(O)cccc4C(C)(O)C3C(O)C12` (stereo not drawn) [oxytetracycline hydrochloride], the solubility in “physchem” is 340 µg/mL. As for gramicidin, the solubility in data set [1] (in polyethylene glycol-550-dimethyl ether, 30°C) came out at 4400 µg/mL. For the molecule `CC(=O)Oc1ccccc1C(=O)O` [aspirin, acetylsalicylic acid], the “chemical potency in the dialkylated glycol vehicle” value in data set [2] is recorded as “stabilizes, for extended periods of time, the chemical potency”. In addition, the solubility in data set [1] (setting [5]) is 120000 µg/mL (≈ 666 mM).

As to `CCCCC[C@H](O)/C=C/[C@@H]1[C@@H](C/C=C\CCCC(=O)O)[C@@H](O)C[C@H]1O` [PGF2α, 9α,11α,15α-trihydroxy-5,13-prostadienoic acid], the solubility in the data set “physchem” was found to be 36000 µg/mL (≈ 102 mM). Regarding `CCOC(=O)c1ccc(N)cc1` [benzocaine], in data set [1] (setting [5]), the solubility amounted to 111000 µg/mL (≈ 672 mM). Regarding `CCCCC[C@H](O)/C=C/[C@H]1[C@H](O)CC(=O)[C@@H]1C/C=C\CCCC(=O)O` [PGE2, 11α,15α-dihydroxy-9-keto-5,13-prostadienoic acid], in data set [3], the “chemical potency in the dialkylated glycol vehicle” value is listed as “stabilizes, for extended periods of time, the chemical potency”. Further, the chemical stability result in data set [4] is listed as “relatively unstable”. Moreover, in data set [1] (setting [5]), the solubility worked out at 2000 µg/mL (≈ 5.67 mM). For the molecule `CCCCCCCCCCCCCCCC(=O)N(CCO)CCO` [N,N-bis(2-hydroxyethyl)-palmitamide], the solubility in data set [1] (setting [5]) turned out to be 2700 µg/mL (≈ 7.86 mM). Turning to `CC1(C)O[C@@H]2C[C@H]3[C@@H]4C[C@H](F)C5=CC(=O)C=C[C@]5(C)[C@@]4(Cl)[C@@H](Cl)C[C@]3(C)[C@]2(C(=O)CCl)O1` [9α,11β,21-trichloro-6α-fluoro-16α,17α-isopropylidenedioxy-pregna-1,4-diene-3,20-dione], the solubility in the data set “physchem” turned out to be 1500 µg/mL (≈ 2.97 mM).

Turning to `CC(=O)[C@@]12OC(C)(C)O[C@@H]1C[C@H]1[C@@H]3C[C@H](F)C4=CC(=O)C=C[C@]4(C)[C@@]3(F)[C@@H](O)C[C@@]12C` [6α,9α-difluoro-11β-hydroxy-16α,17α-isopropylidenedioxy-pregna-1,4-diene-3,20-dione], in “physchem”, the solubility amounted to 6500 µg/mL (≈ 14.9 mM).
